What was measured:
Test in all cases: relative viability (nuclei count vs DMSO), 5 days (fraction); higher = more cells survive
[1] = compound: CC[C@H](C)N1C=C(C2=C(C=C(C=C21)C3=CN=C(C=C3)N4CCNCC4)C(=O)NCC5=C(C=C(NC5=O)C)C)C [GSK126] + C[C@]1(O)C[C@@H](c2nc(-c3ccc4ccc(-c5ccccc5)nc4c3)c3c(N)nccn32)C1 [Linsitinib] (partner 1 µM)
How it was run: (§1)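 Lung cancer cell lines were seeded in 1536-well plates and dosed by pin tool the next day, with either a single drug or a fixed anchor-drug dose combined with five library-drug doses (not always all listed) spaced in √10 steps. Five days later, one step fixed the cells and stained their nuclei (final 0.05% Triton X-100, 1% formaldehyde, 1 ug/ml Hoechst), and nuclei were counted on 4× images. Relative viability is the nuclei count in treated wells divided by the count in vehicle wells, and each value is the median of duplicate plates.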

[2] = compound: C1CC(C1)(C(=O)O)C(=O)O.[NH2-].[NH2-].[Pt+2] [Carboplatin] + O=C(c1cc(Cc2n[nH]c(=O)c3ccccc23)ccc1F)N1CCN(C(=O)C2CC2)CC1 [Olaparib] (partner 8 µM)
How it was run: as §1

[3] = compound: C1CC(C1)(C(=O)O)C(=O)O.[NH2-].[NH2-].[Pt+2] [Carboplatin] + Cc1cc(Nc2cc(N3CCN(C)CC3)nc(Sc3ccc(NC(=O)C4CC4)cc3)n2)n[nH]1 [Tozasertib] (partner 0.1 µM)
How it was run: as §1

[4] = compound: CC[C@H](C)N1C=C(C2=C(C=C(C=C21)C3=CN=C(C=C3)N4CCNCC4)C(=O)NCC5=C(C=C(NC5=O)C)C)C [GSK126] + N=C(N)NC(=N)NCCc1ccccc1 [Phenformin] (partner 250 µM)
How it was run: as §1

Row | Cell Line | relative viability ([1]; first compound 0.08 µM) | relative viability ([1]; first compound 0.253 µM) | relative viability ([1]; first compound 0.8 µM) | relative viability ([1]; first compound 2.53 µM) | relative viability ([1]; first compound 8 µM) | relative viability ([2]; first compound 0.08 µM) | relative viability ([2]; first compound 0.253 µM) | relative viability ([2]; first compound 0.8 µM) | relative viability ([2]; first compound 2.53 µM) | relative viability ([2]; first compound 8 µM) | relative viability ([3]; first compound 0.08 µM) | relative viability ([3]; first compound 0.253 µM) | relative viability ([3]; first compound 0.8 µM) | relative viability ([3]; first compound 2.53 µM) | relative viability ([3]; first compound 8 µM) | relative viability ([4]; first compound 0.08 µM) | relative viability ([4]; first compound 0.253 µM) | relative viability ([4]; first compound 0.8 µM) | relative viability ([4]; first compound 2.53 µM) | relative viability ([4]; first compound 8 µM)
1 | LU99A | 0.52 | 0.513 | 0.605 | 0.503 | 0.652 | 0.296 | 0.272 | 0.253 | 0.236 | 0.214 | 0.282 | 0.279 | 0.248 | 0.258 | 0.212 | 1.09 | 0.881 | 0.94 | 0.93 | 0.855
2 | NCI-H1299 | 0.986 | 0.998 | 1 | 0.93 | 0.964 | 0.967 | 0.969 | 0.96 | 0.947 | 0.826 |  |  |  |  |  |  |  |  |  | 
3 | NCI-H1355 | 0.947 | 0.872 | 0.793 | 0.637 | 0.841 | 0.808 | 0.734 | 0.677 | 0.694 | 0.595 | 0.578 | 0.616 | 0.601 | 0.489 | 0.55 | 0.524 | 0.448 | 0.434 | 0.454 | 0.391
4 | HCC-15 | 0.927 | 0.683 | 0.891 | 0.957 | 0.827 | 0.664 | 0.729 | 0.693 | 0.57 | 0.492 | 0.48 | 0.553 | 0.34 | 0.342 | 0.303 | 0.513 | 0.419 | 0.457 | 0.422 | 0.442
5 | LXF-289 | 1.02 | 1 | 0.995 | 0.915 | 1 | 1.05 | 1.1 | 1.08 | 1.05 | 0.996 | 0.199 | 0.209 | 0.22 | 0.218 | 0.177 | 0.549 | 0.509 | 0.477 | 0.487 | 0.483
6 | 201T | 1.04 | 1.11 | 1.06 | 1.07 | 1.18 | 0.869 | 0.836 | 0.872 | 0.822 | 0.774 | 0.988 | 0.933 | 0.985 | 0.942 | 0.89 | 0.478 | 0.46 | 0.443 | 0.437 | 0.387
7 | HOP-62 | 1.05 | 0.979 | 0.856 | 0.926 | 0.899 | 0.391 | 0.398 | 0.444 | 0.506 | 0.255 | 0.377 | 0.387 | 0.378 | 0.378 | 0.368 | 0.672 | 0.68 | 0.672 | 0.642 | 0.68
8 | NCI-H1703 | 1.25 | 0.708 | 0.852 | 0.82 | 1.5 | 0.646 | 0.329 | 0.453 | 0.608 | 0.325 |  |  |  |  |  |  |  |  |  | 
9 | NCI-H1975 | 1.02 | 1.01 | 0.983 | 0.96 | 0.987 | 0.961 | 0.79 | 0.735 | 0.747 | 0.747 | 0.882 | 0.719 | 0.634 | 0.626 | 0.677 | 0.465 | 0.412 | 0.392 | 0.422 | 0.405
10 | NCI-H2023 | 0.778 | 0.679 | 0.644 | 0.757 | 0.755 | 0.473 | 0.445 | 0.415 | 0.231 | 0.135 | 0.419 | 0.394 | 0.402 | 0.262 | 0.158 | 0.445 | 0.383 | 0.373 | 0.377 | 0.278
11 | EBC-1 | 1.07 | 1.02 | 1 | 0.74 | 0.909 | 0.775 | 0.694 | 0.725 | 0.624 | 0.567 |  |  |  |  |  |  |  |  |  | 
12 | COR-L23 | 1.06 | 1.12 | 0.918 | 0.912 | 0.99 | 0.329 | 0.3 | 0.301 | 0.246 | 0.157 | 0.237 | 0.217 | 0.186 | 0.144 | 0.148 | 0.504 | 0.445 | 0.437 | 0.435 | 0.404
13 | NCI-H1793 | 1.04 | 0.777 | 0.748 | 0.982 | 0.82 | 0.802 | 0.909 | 0.82 | 0.675 | 1.04 | 0.446 | 0.386 | 0.301 | 0.317 | 0.501 | 0.407 | 0.458 | 0.384 | 0.274 | 0.235
14 | A549 | 0.687 | 0.524 | 0.541 | 0.594 | 0.58 | 0.332 | 0.388 | 0.314 | 0.329 | 0.174 |  |  |  |  |  | 0.245 | 0.169 | 0.126 | 0.131 | 0.114
15 | CAL-12T | 0.964 | 0.94 | 0.78 | 0.918 | 0.868 | 0.727 | 0.783 | 0.673 | 0.741 | 0.648 | 0.338 | 0.289 | 0.329 | 0.413 | 0.382 | 0.617 | 0.568 | 0.572 | 0.519 | 0.63
16 | NCI-H1993 | 0.827 | 0.713 | 0.728 | 0.752 | 0.734 | 0.854 | 1.22 | 0.993 | 0.923 | 0.706 | 0.61 | 0.643 | 0.575 | 0.593 | 0.635 | 0.501 | 0.546 | 0.501 | 0.522 | 0.554
17 | ChaGo-K-1 |  |  |  |  |  | 0.43 | 0.409 | 0.376 | 0.332 | 0.362 | 0.231 | 0.224 | 0.215 | 0.213 | 0.192 | 0.541 | 0.535 | 0.446 | 0.415 | 0.431
18 | SW 900 |  |  |  |  |  | 0.814 | 0.968 | 0.874 | 0.818 | 0.823 | 0.682 | 0.479 | 0.56 | 0.399 | 0.314 | 0.637 | 0.479 | 0.721 | 0.502 | 0.576
